Measured values reported in patent publication US20260374782A1, “NEW COMPOUNDS, PROCESSES FOR PREPARING THE SAME AND THEIR USE AS DRUGS” (B&A ONCOMEDICAL, priority 2022, published 2026).

Biological target: T1, NKCC1 (Homo sapiens, UniProt P55011)
T1 construct: endogenous in cells; host or cells: native HEK293 cells
T1 sequence (P55011 1-1212): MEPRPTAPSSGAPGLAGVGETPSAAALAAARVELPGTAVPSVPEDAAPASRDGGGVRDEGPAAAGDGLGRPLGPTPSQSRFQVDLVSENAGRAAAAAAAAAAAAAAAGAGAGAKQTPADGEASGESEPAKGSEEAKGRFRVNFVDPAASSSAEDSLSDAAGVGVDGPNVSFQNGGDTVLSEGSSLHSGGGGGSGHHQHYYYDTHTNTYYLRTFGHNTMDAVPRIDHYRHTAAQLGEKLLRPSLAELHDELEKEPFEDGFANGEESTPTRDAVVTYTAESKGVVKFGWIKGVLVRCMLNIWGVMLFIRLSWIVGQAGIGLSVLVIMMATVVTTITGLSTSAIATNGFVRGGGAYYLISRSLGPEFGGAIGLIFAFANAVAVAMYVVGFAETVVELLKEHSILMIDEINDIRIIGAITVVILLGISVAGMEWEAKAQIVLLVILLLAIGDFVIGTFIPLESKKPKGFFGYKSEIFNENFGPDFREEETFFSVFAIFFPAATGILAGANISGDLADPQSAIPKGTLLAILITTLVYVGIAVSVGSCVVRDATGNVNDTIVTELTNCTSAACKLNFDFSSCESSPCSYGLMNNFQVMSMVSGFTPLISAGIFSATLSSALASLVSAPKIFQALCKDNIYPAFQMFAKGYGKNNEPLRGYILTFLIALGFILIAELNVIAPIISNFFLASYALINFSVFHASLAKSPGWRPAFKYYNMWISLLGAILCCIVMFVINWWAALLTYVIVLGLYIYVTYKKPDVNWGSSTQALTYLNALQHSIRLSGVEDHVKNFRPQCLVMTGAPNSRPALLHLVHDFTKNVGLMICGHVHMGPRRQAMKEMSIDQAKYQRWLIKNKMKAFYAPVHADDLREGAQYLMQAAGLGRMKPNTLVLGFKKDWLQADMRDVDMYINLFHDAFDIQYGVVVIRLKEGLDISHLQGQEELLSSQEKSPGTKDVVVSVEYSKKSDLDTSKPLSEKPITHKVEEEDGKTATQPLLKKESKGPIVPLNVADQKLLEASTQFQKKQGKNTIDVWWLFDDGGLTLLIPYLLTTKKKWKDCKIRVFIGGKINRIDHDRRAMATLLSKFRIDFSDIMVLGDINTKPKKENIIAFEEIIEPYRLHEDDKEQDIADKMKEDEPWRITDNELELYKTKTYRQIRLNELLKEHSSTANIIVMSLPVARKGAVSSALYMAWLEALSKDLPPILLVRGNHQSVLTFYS
Test: NKCC1-mediated K+ influx (83Rb tracer uptake) in native HEK293 cells, hypertonic saline, 100 μM ouabain
Assay type: cell-based
Settings: HEK293, no drug = 1000, 20 μM bumetanide = 0; for inhibition at 20 µM: read-out: NKCC1 mediated flux inhibition at 20 μM (%); for inhibition at 2 µM: read-out: NKCC1 mediated flux inhibition at 2 μM (%)
From the text: The compounds of the invention have been tested for evaluating their potency in inhibiting the NKCC1 channel. The test used is a cellular assay expressing the NKCC1 channel: HEK293 cells are human cells derived from embryonic kidney. The inhibitory activity of the compounds has been evaluated in measuring the modification of the potassium flux at 2 concentrations, as described hereafter in the biological protocol.
HEK293 cells are human cells derived from embryonic kidney. They express at their plasma membranes proteins that transport potassium (K^+). Among these proteins is the Na—K-2Cl cotransporter or NKCC1. This transporter contributes to 40-50% of K^+ influx into the cells. The remaining of K^+ transport is mediated by the Na^+/K^+-ATPase (also known as Na^+ pump or Na^+/K^+ pump), which also contributes some 40-50% of the influx basal flux of 5-10%, which is mainly due to K^+ channels (FIG. 1A). Thus, the HEK293 cell in culture is an ideal model to study the function of NKCC1 and test compounds that inhibits its transport.
The assay to measure NKCC1 function was optimized to obtain the next signal to noise ratio: • a. A slightly hypertonic saline was used to stimulate NKCC1 function. […] By consistent use of this simple manipulation, the NKCC1 signal was enhanced. • b. Ouabain, an inhibitor of the Na^+/K^+ pump, was used at 100 μM. […] A radioactive isotope was used to trace the inward movement of K^+ into the cell (influx). This allowed for highly precise measurements of K^+ influx. Because radioactive isotopes of K^+ had very short half-lives, radioactive isotopes of Rb^+ were used. Rubidium was a monovalent cation which was readily transporter at the K^+ binding site by many transporters and channels. Rb^+ was a congener of K^+, being transported undistinguishably from K^+. ^83Rb (half-life of 83 days) was used since ^86Rb (half-life of 19.6 days) is no longer commercially available. The ^83Rb isotope was used as a tracer, i.e. at a very low amounts to trace the movement of K^+.
K^+ influx measured in native HEK293 was in the range of 7000-9000 pmoles K^+ per mg protein per min. In the presence of 20 μM Ref 1, the flux was reduced to 600-900 pmoles K^+ per mg protein per min. Thus, there was a very solid dynamic range. In each experiment, the flux without Ref 1 was set at 1000 (equivalent to 100.0%) and the flux with 20 μM bumetanide was set at 0 (equivalent to 0%).
For the flux experiments, 35-mm culture dishes were coated with 0.1 mg/mL poly-L-lysine and placed in large 20×20 [square] dishes. For convenience, the poly-L-lysine was placed in the dishes the day before the experiment. Before plating the cells, the poly-L-lysine was aspirated, and each dish washed twice with 1 mL sterile water. Cells from 3 confluent 10-cm dishes were detached with trypsin and resuspended into 49 mL complete medium. Cells (2 mL/35-mm dish) were plated in 24 dishes and allowed to attach for at least 2 hours prior to the flux. This setup allowed the measurement of 8 conditions in triplicates. For the flux, culture medium was aspirated and replaced with 1 mL saline for a preincubation period of 15 min. The saline was aspirated and replaced with 1 mL identical saline containing 0.25 μCi/mL 83Rb for 15 min. Following the uptake period, the radioactive solution was aspirated, and the cells washed 3 times with ice-cold saline. Cells were then lyzed with 500 μl 0.25N NaOH for 1 hour, neutralized with 250 μL glacial acetic acid and 300 μL and 30 μL aliquots were used for μ-scintillation counting and protein assays, respectively. Two 5 μL of each flux solution was used to determine cpm and relate those cpm to nmoles K^+. Potassium influx was expressed in nmoles K^+ per mg protein per min. Note that within an experiment, groups of 3 dishes were separated 2 min apart for easy handling. Also note that since all dishes were plated with a homogeneous cell suspension, and all dishes were identical, the protein content was measured from a subset of dishes. […]

Row | Compound | inhibition at 20 µM | inhibition at 2 µM
1 | CCCCNc1cc(C(=O)OC)cc(S(=N)(=O)Nc2ccccc2Cl)c1Oc1ccccc1 (stereo not shown) [Compound 26, methyl 3-(butylamino)-5-[(2-chloroanilino)sulfonimidoyl]-4-phenoxy-benzoate] | 10 to 30% | 
2 | CCCCNc1cc(C(=O)OC)cc(S(=N)(=O)Nc2ccc(Cl)cc2)c1Oc1ccccc1 (stereo not shown) [Compound 27, methyl 3-(butylamino)-5-[(4-chloroanilino)sulfonimidoyl]-4-phenoxy-benzoate] | 10 to 30% | 
3 | CCCCNc1cc(C(=O)OC)cc(S(=N)(=O)Nc2cccc(OC(F)F)c2)c1Oc1ccccc1 (stereo not shown) [Compound 28, methyl 3-(butylamino)-5-[[3-(difluoromethoxy)anilino]sulfonimidoyl]-4-phenoxy-benzoate] | 30 to 50% | 
4 | CCCCNc1cc(C(=O)OC)cc(S(=N)(=O)NC2CCOCC2)c1Oc1ccccc1 (stereo not shown) [Compound 29, methyl 3-(butylamino)-4-phenoxy-5-[(tetrahydropyran-4-ylamino)sulfonimidoyl]benzoate] | 10 to 30% | 
5 | CCCCNc1cc(C(=O)OC)cc(S(=N)(=O)NC2CCN(C)CC2)c1Oc1ccccc1 (stereo not shown) [Compound 30, methyl 3-(butylamino)-5-[[(1-methyl-4-piperidyl)amino]sulfonimidoyl]-4-phenoxy-benzoate] | 30 to 50% | 
6 | CCCCNc1cc(C(=O)OC)cc(S(=N)(=O)Nc2ncccn2)c1Oc1ccccc1 (stereo not shown) [Compound 31, methyl 3-(butylamino)-4-phenoxy-5-[(pyrimidin-2-ylamino)sulfonimidoyl]benzoate] | 10 to 30% | 
7 | CCCCNc1cc(C(=O)OC)cc(S(=N)(=O)NCCc2ccccc2)c1Oc1ccccc1 (stereo not shown) [Compound 34, methyl 3-(butylamino)-4-phenoxy-5-[(2-phenylethylamino)sulfonimidoyl]benzoate] | 30 to 50% | 
8 | CCCCNc1cc(C(=O)OC)cc(S(=N)(=O)NCCc2cccc(Cl)c2)c1Oc1ccccc1 (stereo not shown) [Compound 35, methyl 3-(butylamino)-5-[[2-(3-chlorophenyl)ethylamino]sulfonimidoyl]-4-phenoxy-benzoate] | 30 to 50% | 
9 | CCCCNc1cc(C(=O)OC)cc(S(=N)(=O)NCc2cccnc2)c1Oc1ccccc1 (stereo not shown) [Compound 36, methyl 3-(butylamino)-4-phenoxy-5-[(3-pyridylmethylamino)sulfonimidoyl]benzoate] | 30 to 50% | 
10 | CCCCNc1cc(C(=O)OC)cc(S(=N)(=O)NCCc2cccnc2)c1Oc1ccccc1 (stereo not shown) [Compound 37, methyl 3-(butylamino)-4-phenoxy-5-[[2-(3-pyridyl)ethylamino]sulfonimidoyl]benzoate] | 10 to 30% | 
11 | CCCCNc1cc(C(=O)OC)cc(S(=N)(=O)NCc2nccs2)c1Oc1ccccc1 (stereo not shown) [Compound 38, methyl 3-(butylamino)-4-phenoxy-5-[(thiazol-2-ylmethylamino)sulfonimidoyl]benzoate] | 10 to 30% | 
12 | CCCCNc1cc(C(=O)OC)cc(S(=N)(=O)NCCc2nccs2)c1Oc1ccccc1 (stereo not shown) [Compound 39, methyl 3-(butylamino)-4-phenoxy-5-[(2-thiazol-2-ylethylamino)sulfonimidoyl]benzoate] | 10 to 30% | 
13 | CCCCNc1cc(C(=O)OC)cc(S(=N)(=O)Nc2nccn2C)c1Oc1ccccc1 (stereo not shown) [Compound 40, methyl 3-(butylamino)-5-[[(1-methylimidazol-2-yl)amino]sulfonimidoyl]-4-phenoxy-benzoate] | 30 to 50% | 
14 | CCCCNc1cc(C(=O)OC)cc(S(=N)(=O)Nc2ccccn2)c1Oc1ccccc1 (stereo not shown) [Compound 41, methyl 3-(butylamino)-4-phenoxy-5-[(2-pyridylamino)sulfonimidoyl]benzoate] | 30 to 50% | 
15 | CCCCNc1cc(C(=O)OC)cc(S(=N)(=O)NCc2ccn(C)n2)c1Oc1ccccc1 (stereo not shown) [Compound 42, methyl 3-(butylamino)-5-[[(1-methylpyrazol-3-yl)methylamino]sulfonimidoyl]-4-phenoxy-benzoate] | 10 to 30% | 10 to 30%
16 | CCCCNc1cc(C(=O)OC)cc(S(=N)(=O)Nc2nccs2)c1Oc1ccccc1 (stereo not shown) [Compound 43, methyl 3-(butylamino)-4-phenoxy-5-[(thiazol-2-ylamino)sulfonimidoyl]benzoate] | 10 to 30% | 30 to 50%
17 | CCCCNc1cc(C(=O)OC)cc(S(=N)(=O)Nc2ccncc2)c1Oc1ccccc1 (stereo not shown) [Compound 44, methyl 3-(butylamino)-4-phenoxy-5-[(4-pyridylamino)sulfonimidoyl]benzoate] | 10 to 30% | 30 to 50%
18 | CCCCNc1cc(C(=O)OC)cc(S(=N)(=O)Nc2ccnnc2)c1Oc1ccccc1 (stereo not shown) [Compound 45, methyl 3-(butylamino)-4-phenoxy-5-[(pyridazin-4-ylamino)sulfonimidoyl]benzoate] | 30 to 50% | 30 to 50%
19 | CCCCNc1cc(C(=O)OC)cc(S(=N)(=O)NCCCC)c1Oc1ccccc1 (stereo not shown) [Compound 46, methyl 3-(butylamino)-5-(butylaminosulfonimidoyl)-4-phenoxy-benzoate] | 30 to 50% | 30 to 50%
20 | CCCCNc1cc(C(=O)OC)cc(S(=N)(=O)NC23CC(C2)C3)c1Oc1ccccc1 (stereo not shown) [Compound 47, methyl 3-[(1-bicyclo[1.1.1]pentanylamino)sulfonimidoyl]-5-(butylamino)-4-phenoxy-benzoate] | 30 to 50% | 30 to 50%
21 | CCCCNc1cc(C(=O)OC)cc(S(=N)(=O)NC2CN3CCC2CC3)c1Oc1ccccc1 (stereo not shown) [Compound 48, methyl 3-(butylamino)-4-phenoxy-5-[(quinuclidin-3-ylamino)sulfonimidoyl]benzoate] | 50 to 75% | 30 to 50%
